Reference: patent EP4563579A1, “MACROCYCLIC EGFR INHIBITOR, AND PREPARATION METHOD THEREFOR AND PHARMACEUTICAL USE THEREOF” (Abbisko Therapeutics Co., Ltd., priority 2022, dated 2024)
Like-named read-outs stand apart in the source and are kept apart here.

Columns and labels:
[1] = system: Ba/F3 EGFR-L858R-C797S (LC); test: Cell proliferation assay (CellTiter-Glo), Ba/F3 LC; format: cell-based; conditions: Ba/F3 EGFR-L858R-C797S cells, 72 hour incubation, CTG readout
Protocol: (§1) • DMEM Medium (Gibco, Cat#11965118) • RPMI1640 Medium (Gibco, Cat#11875119) • Fetal Bovine Serum (FBS) (GBICO, Cat#10099-141) • CellTiter-Glo® Luminescent Cell Viability Assay Kit (Promega, Cat#G7572) 96-well, Black, Clear Flat Bottom Plate (Corning®, Cat# 3603)
(§2) • SpectraMax Multimode Microplate Reader MD, 2104-0010A; • CO2 Incubator, Thermo Scientific 3100 Series; • Biosafety Cabinet, Thermo Scientific, 1300 Series A2; • Inverted Microscope, Olympus, CKX41SF; • Siemens Refrigerator, KK25E76TI.
(§3) • 1. Cell Culture and Inoculation: • (1) Harvest cells in a logarithmic growth phase and count the cells using a […]. Test cell viability using a trypan blue exclusion method to ensure that cell viability is above 90%. • (2) Adjust the cell concentration to desired final density; and add 90 µL of cell suspension to a 96-well plate. • (3) Incubate the cells overnight at 37°C, under 5% CO2 and 95% humidity in the 96-well plate. • 2. T0 Reference Data: • (1) Add 10 µL PBS to each well of the T0 plate containing cells. • (2) Thaw the CTG reagent and equilibrate the plate to room temperature for 30 minutes. • (3) Add an equal volume of CTG solution to each well. • (4) Lyse cells by shaking on an orbital shaker for 5 minutes. • (5) Leave the plate at room temperature for 20 minutes to stabilize the luminescence signal. • (6) Read the T0 […]. • 3. Compound Dilution and Addition • (1) Add a corresponding volume of DMSO to a corresponding compound powder according to the compound information sheet to prepare a 10 mM stock solution. • (2) Prepare 1000-fold and 3.16-fold diluted compound solutions. • (3) Dilute the 1000× diluted compound solution 100-fold with PBS to prepare a 10-fold compound solution, with a maximum concentration of 10 µM, nine concentrations and 3.16-fold dilution. Then add 10 µL of the drug solution concentration to individual wells of the 96-well plate seeded with cells. Test each compound concentration in triplicate wells, and the final DMSO concentration is 0.1%. • (4) Incubate the cells in the 96-well plate containing the drug compounds at 37°C, under 5% CO2, and 95% humidity for an additional 72 hour period prior to performing the CTG analysis. • 4. Fluorescence Signal Reading • (1) Thaw the CTG reagent and equilibrate the plate to room temperature for 30 minutes. • (2) Add an equal volume of CTG solution to each well. • (3) Lyse cells by shaking on an orbital shaker for 5 minutes. • (4) Leave the plate at room temperature for 20 minutes to stabilize the […]. • (5) Read fluorescence value. • 5. Data Processing
(§4) Analyze the data by using GraphPad Prism 7.0 software, and use Non-linear S-curve regression to fit the dose-response curves, to calculate the IC50 values (in nM). The specific experiment results are presented in Table 1: [formula] Table 1: Biology Test Results

[2] = system: A431 WT; test: Cell proliferation assay (CellTiter-Glo), A431 WT; format: cell-based; conditions: A431 WT cells, 72 hour incubation, CTG readout
Protocol: as §1, §2, §3, §4

[3] = system: Ba/F3 EGFR-L858R-T790M-C797S (LTC); test: Cell proliferation assay (CellTiter-Glo), Ba/F3 LTC; format: cell-based; conditions: Ba/F3 EGFR-L858R-T790M-C797S cells, 72 hour incubation, CTG readout
Protocol: as §1, §2, §3, §4

[4] = Pharmacokinetic experiment in mice; format: in vivo; conditions: male, mouse; ICR mice, single oral administration (PO), 10 mg/kg, plasma
Text: The purpose of this trial is to study the pharmacokinetic behavior of some compounds of the present invention, and the administration method is: Single oral administration (PO) to ICR mice.
The compounds used in this trial are from the compounds in the specific examples of the present invention and the listed positive compounds.
ICR mice male N=9 original source: Shanghai Sippr-Bk Lab Animal Co., Ltd.
The compounds are weighed and dissolved in the corresponding solution (10% PG + 10% Solutol® + 80% pH3 citrate buffer). The mixture is then shaken well and sonicated to prepare a 1 mg/mL stock solution. Nine mice are orally administered at a dose of 10 mg/kg (or IV 2 mg/kg) after an overnight fast.
About 90 µL of blood is collected via the submandibular vein per time point, heparin sodium anticoagulant is added, the sample is placed on ice after collection, and plasma is centrifuged within 1 hour (centrifugation conditions: 8,000 rpm, 6 minutes, 2-8°C). The blood collection timepoints are 0, 0.25, 0.5, 1, 2, 4, 6, 8 and 24 h. The samples are stored in a -20°C refrigerator.
The plasma sample is 40 µL, 160 µL of ice-cold acetonitrile containing internal standard is added, vortexed for 3 minutes, and centrifuged at 11,000 rpm for 5 minutes. 100 µL of the supernatant is taken and added to 100 µL of water, 5 µL of the sample is taken and injected into LC/MS/MS for analysis.

Cn1ncc2c1OCC1(CCCC1)Cn1nc(N3CCC(NS(C)(=O)=O)C3)c3cnc(cc31)Nc1ccnc-2n1 (stereo in doubt) [Example 52, (R)-N-(1-(1'-methylspiro(cyclopentane-1,6'-8-oxa-3-aza-4(6,1)-pyrazolo[4,3-c]pyridina-2(2,4)-pyrimidina-1(4,5) -pyrazolacyclooctaphane)-3' -yl)pyrrolidin-3-yl)methanes ulfonamide] gave an IC50 ([1]; Mus musculus, BaF3) of 31 nM, an IC50 ([2]; Homo sapiens, A-431) of 261 nM and an IC50 ([3]; Mus musculus, BaF3) of 16.4 nM.
Cn1ncc2c1OCC1(CCCC1)Cn1nc(C#CC3CCNCC3)c3cnc(cc31)Nc1ccnc-2n1 [Example 6, 1'-methyl-3'-(piperidin-4-ylethynyl)spiro(cyclopentane-1,6'-8-oxa-3-aza-4(6,1)-pyrazolo[4,3-c]pyridina-2(2,4)-pyrimidina-1(4,5)-pyrazolacyclooctaphane)] gave an IC50 ([1]; Mus musculus, BaF3) of 35.6 nM, an IC50 ([2]; Homo sapiens, A-431) of 1360 nM and an IC50 ([3]; Mus musculus, BaF3) of 28.3 nM.
CCN1CCC(C#Cc2nn3c4cc(ncc24)Nc2ccnc(n2)-c2cnn(C)c2OCC2(CCCC2)C3)CC1 [Example 7, 3'-((1-ethylpiperidin-4-yl)ethynyl)-1'-methylspiro(cyclopentane-1,6'-8-oxa-3-aza-4(6,1)-pyrazolo[4,3-c]pyridina-2(2,4)-pyrimidina-1(4,5)-pyrazolacyclooctaphane)] gave an IC50 ([1]; Mus musculus, BaF3) of 43.5 nM, an IC50 ([2]; Homo sapiens, A-431) of 1660 nM and an AUC(0-t) [4] of 2520 ng·h/mL. It also gave a Cmax [4] of 193 ng/mL, a half-life [4] of 336 min and an IC50 ([3]; Mus musculus, BaF3) of 24.6 nM.
Compound CN1CCC(F)(C#Cc2nn3c4cc(ncc24)Nc2ccnc(n2)-c2cnn(C)c2OCC2(CCC2)C3)CC1 [Example 12, 3'-((4-fluoro-1-methylpiperidin-4-yl)ethynyl)-1'-methyls piro(cyclobutane-1,6'-8-oxa-3-aza-4(6,1)-pyrazolo[4,3-c]pyridina-2(2,4)-pyrimidina-1 (4,5)-pyrazolacyclooctaphane)] has an IC50 ([1]; Mus musculus, BaF3) of 124 nM, an IC50 ([2]; Homo sapiens, A-431) of 629 nM and an IC50 ([3]; Mus musculus, BaF3) of 61.9 nM.
Compound Cn1ncc2c1OCC1(CCCC1)Cn1nc(N3CCC(F)(F)C3)c3cnc(cc31)Nc1ccnc-2n1 [Example 15, 3'-(3,3-difluoropyrrolidin-1-yl)-1'-methylspiro(cyclopentane-1,6'-8-oxa-3-aza-4(6, 1)-pyrazolo[4,3-c]pyridina-2(2,4)-pyrimidina-1(4,5)-pyrazolacyclooctaphane)] has an IC50 ([1]; Mus musculus, BaF3) of 84.4 nM, an IC50 ([2]; Homo sapiens, A-431) of 1050 nM and an IC50 ([3]; Mus musculus, BaF3) of 32.4 nM.
CO[C@H]1CCN(c2nn3c4cc(ncc24)Nc2ccnc(n2)-c2cnn(C)c2OCC2(CCCC2)C3)C1 [Example 16, (S)-3'-(3-methoxypyrrolidin-1-yl)-1'-methylspiro(cyclopentane-1,6'-8-oxa-3-aza-4(6,1)-pyrazolo[4,3-c]pyridina-2(2,4)-pyrimidina-1(4,5)-pyrazolacyclooctaphane)] gave an IC50 ([1]; Mus musculus, BaF3) of 23.8 nM, an IC50 ([2]; Homo sapiens, A-431) of 482 nM and an IC50 ([3]; Mus musculus, BaF3) of 13.3 nM.
Compound COC[C@@H]1CCN(c2nn3c4cc(ncc24)Nc2ccnc(n2)-c2cnn(C)c2OCC2(CCCC2)C3)C1 [Example 17, (R)-3'-(3-(methoxymethyl)pyrrolidin-1-yl)-1'-methyls piro(cyclopentane-1,6'-8-oxa-3-aza-4(6,1)-pyrazolo[4,3-c]pyridina-2(2,4)-pyrimidina-1(4,5)-pyrazolacyclooctaphane)] has an IC50 ([1]; Mus musculus, BaF3) of 32.1 nM, an IC50 ([2]; Homo sapiens, A-431) of 391 nM and an IC50 ([3]; Mus musculus, BaF3) of 7.8 nM.
In the case of COCC[C@@H]1CCN(c2nn3c4cc(ncc24)Nc2ccnc(n2)-c2cnn(C)c2OCC2(CCCC2)C3)C1 [Example 18, (S)-3'-(3-(2-methoxyethyl)pyrrolidin-1-yl)-1'-methylspi ro(cyclopentane-1,6'-8-oxa-3-aza-4(6,1)-pyrazolo[4,3-c]pyridina-2(2,4)-pyrimidina-1(4,5)-pyrazolacyclooctaphane)], the IC50 ([1]; Mus musculus, BaF3) is reported as 25.4 nM, the IC50 ([2]; Homo sapiens, A-431) is reported as 765 nM and the IC50 ([3]; Mus musculus, BaF3) is reported as 10.9 nM.
COCC[C@H]1CCN(c2nn3c4cc(ncc24)Nc2ccnc(n2)-c2cnn(C)c2OCC2(CCCC2)C3)C1 [Example 19, (R)-3'-(3-(2-methoxyethyl)pyrrolidin-1-yl)-1'-methyls piro(cyclopentane-1,6'-8-oxa-3-aza-4(6,1)-pyrazolo[4,3-c]pyridina-2(2,4)-pyrimidina-1(4,5)-pyrazolacyclooctaphane)] showed an IC50 ([1]; Mus musculus, BaF3) of 19.5 nM, an IC50 ([2]; Homo sapiens, A-431) of 771 nM and an IC50 ([3]; Mus musculus, BaF3) of 11.3 nM.
Cn1ncc2c1OCC1(CCCC1)Cn1nc(N3CC[C@H](C(C)(C)O)C3)c3cnc(cc31)Nc1ccnc-2n1 [Example 20, (S)-2-(1-(1'-methylspiro[cyclopentane-1,6'-8-oxa-3-aza-4(6,1)-pyrazolo[4,3-c]pyridina-2(2,4)-pyrimidina-1(4,5)-pyrazolacyclooctaphane]-3'-yl)pyrrolidin-3-yl)propan-2-ol] showed an IC50 ([1]; Mus musculus, BaF3) of 38 nM, an IC50 ([2]; Homo sapiens, A-431) of 512 nM and an IC50 ([3]; Mus musculus, BaF3) of 16 nM.
Compound Cn1ncc2c1OCC1(CCCC1)Cn1nc(N3CC[C@H](NC(=O)OC(C)(C)C)C3)c3cnc(cc31)Nc1ccnc-2n1 [Example 47, Tert-butyl (S)-(1-(1'-methylspiro(cyclopentane-1,6'-8-oxa-3-aza-4(6,1)-pyrazolo[4,3-c]pyridina-2(2,4)-pyrimidina-1(4,5) -pyrazolacyclooctaphane)-3 '-yl)pyrrolidin-3-yl)carbam ate] has an IC50 ([1]; Mus musculus, BaF3) of 82 nM, an IC50 ([2]; Homo sapiens, A-431) of 2570 nM and an IC50 ([3]; Mus musculus, BaF3) of 35.2 nM.
CC(=O)N[C@@H]1CCN(c2nn3c4cc(ncc24)Nc2ccnc(n2)-c2cnn(C)c2OCC2(CCCC2)C3)C1 [Example 49] showed an IC50 ([1]; read-out: IC50 BaF3 LC) of 59.9 nM, an IC50 [2] of 926 nM and an IC50 ([3]; read-out: IC50 BaF3 LTC) of 29.6 nM.
For Cn1ncc2c1OCC1(CCCC1)Cn1nc(N3CC[C@@H](NC(=O)C(F)(F)F)C3)c3cnc(cc31)Nc1ccnc-2n1 [Example 50], the IC50 ([1]; Mus musculus, BaF3) was 86.5 nM, the IC50 ([2]; Homo sapiens, A-431) was 1060 nM and the IC50 ([3]; Mus musculus, BaF3) was 20.7 nM.
For Cn1ncc2c1OCC1(CCCC1)Cn1nc(N3CC[C@H](NC(=O)C(F)(F)F)C3)c3cnc(cc31)Nc1ccnc-2n1 [Example 56], the IC50 ([1]; Mus musculus, BaF3) was 36.5 nM, the IC50 ([2]; Homo sapiens, A-431) was 843 nM and the IC50 ([3]; Mus musculus, BaF3) was 12.5 nM.
C[C@H]1CCOc2c(cnn2C)-c2nccc(n2)Nc2cc3c(cn2)c(C#CC2CN(C)C2)nn31 [Example A2, (S)-1^1,5-dimethyl-4^3-((1-methylazetidin-3-yl)ethynyl)-1^1 H,4^1H-8-oxa-3-aza-4(6,1)-p yrazolo[4,3-c]pyridina-2(2,4)-pyrimidina-1(4,5)-pyrazol acyclooctaphane] gave an IC50 ([1]; Mus musculus, BaF3) of 176 nM, an IC50 ([2]; Homo sapiens, A-431) of 2490 nM and an IC50 ([3]; Mus musculus, BaF3) of 167 nM.
C[C@H]1CCOc2c(cnn2C)-c2nccc(n2)Nc2cc3c(cn2)c(C#CC2CCN(C)CC2)nn31 [Example A3, (S)-1^1,5-dimethyl-4^3-((1-methylpiperidin-4-yl)ethynyl)-1^1H,4^1H-8-oxa-3-aza-4(6,1) -pyrazolo[4,3-c]pyridina-2(2,4)-pyrimidina-1(4,5)-pyra zolacyclooctaphane] showed an IC50 ([1]; Mus musculus, BaF3) of 53.3 nM, an IC50 ([2]; Homo sapiens, A-431) of 1840 nM and an IC50 ([3]; Mus musculus, BaF3) of 62.1 nM.
